Test results from patent US20240228446A1, “PREPARATION METHOD FOR BICYCLIC COMPOUND AND APPLICATION AS ANTIFUNGAL AGENT” (priority 2021, published 2024).
≈ marks a conversion by molar mass, not a printed value.

test system: Candida albicans ATCC MYA-2876; experiment: Minimal inhibitory concentration (MIC) test on fungal growth (CLSI M27, yeasts); type: cell-based; details: Candida albicans, 24 h, read-out: MIC Candida albicans ATCC MYA-2876
Experimental: • RPMI1640 medium: Brand: Gibco, article number: 31800-014 • Sabouraud dextrose agar (SDA): Brand: Hope Bio, article number: HB0253-81 • Voriconazole: Brand: Adamas, article number: 22105A • Amphotericin B: Brand: AbCam, article number: ab141199
MIC test was conducted in accordance with the guidelines and requirements of CLSI M27 (for yeasts) and M38 (for Aspergillus).
Strain preparation: The strains were inoculated 1 day in advance by streaking on SDA plates with glycerol strains stored at −80° C. The strains were cultured at 35° C. and 40 to 60% humidity for 18 to 24 hours. Streak inoculation of Aspergillus fumigatus and Cryptococcus neoformans was required to be done 3 days and 2 days in advance, respectively.
Preparation of culture medium and compounds: The liquid culture medium RPMI was prepared with pure water, and 0.165 mol/L MOPS was added to adjust the pH to 7.0. The mixture was filtered with a 0.22 μm-membrane filter, sterilized, and stored at 4° C. (no more than 3 months). 0.85% physiological saline was sterilized at 121° C. for 30 min and then stored at room temperature (no more than 1 week). The compounds were dissolved in DMSO to 12.8 mg/mL and stored at −20° C.
For yeast, 3 to 5 colonies were selected from the SDA plate on the day of testing and fully suspended in 5 mL of sterilized 0.85% physiological saline. The turbidity of the bacterial suspension was measured with a turbidimeter, and the turbidity was adjusted to approximately 0.2. The bacterial suspension was 50-fold and 20-fold (1000-fold in total) diluted in RPMI1640 medium, respectively, to serve as the inoculum. The final inoculum concentration was 500 to 2500 CFU/mL.
The compound was diluted to the highest 800 μg/mL (or 400 μg/mL) with DMSO, and a 10-step 2-fold gradient dilution was performed, resulting in 11 concentrations. 2 μL of the gradient-diluted compound was transferred to the corresponding wells of a 96-well plate, and then 198 μL of the inoculum was transferred to the test plate. The plate was incubated at 35° C. for 24 hours (Aspergillus fumigatus and Cryptococcus neoformans were incubated for 48 and 72 hours, respectively).
After the incubation, the growth of the fungi was visually observed. The lowest concentration of the compound that inhibited the growth of yeast by 50% (inhibited Aspergillus by 100%) was defined as the minimum inhibitory concentration (MIC, μg/mL). A magnifying glass or reading at OD530 nm could be used to assist in determining the MIC. Photos were taken of the test plates for record keeping.

Row | SMILES | MIC
1 | COc1ccc(C23CC(C(F)(F)C(O)(Cn4cnnn4)c4ccc(F)cc4F)(C2)C3)cn1 (centres unmarked) [Compound 92] | 0.03 µg/mL (≈ 0.0668 µM)
2 | OC(Cn1cnnn1)(c1ccc(F)cc1F)C(F)(F)C12CC(c3ccc(Oc4ccccn4)cc3)(C1)C2 (centres unmarked) [Compound 71] | 0.03 µg/mL (≈ 0.0587 µM)
3 | OC(Cn1cnnn1)(c1ccc(F)cc1F)C(F)(F)C12CC(c3cnc(NCC(F)(F)F)nc3)(C1)C2 (centres unmarked) [Compound 111] | 0.016 µg/mL (≈ 0.0309 µM)
4 | NC[C@H](O)COc1ccc(C23CC(C(F)(F)C(O)(Cn4cnnn4)c4ccc(F)cc4F)(C2)C3)cc1 (some centres unmarked) [Compound 52] | 1 µg/mL (≈ 1.97 µM)

same assay, conditions: Candida albicans; lowest concentration inhibiting growth of yeast by 50%; 35° C., 24 hours; RPMI1640; read-out: MIC Candida albicans ATCC MYA-2876

Row | SMILES | MIC
5 | CN(C)C[C@@H](O)COc1ccc(C23CC(C(F)(F)C(O)(Cn4cnnn4)c4ccc(F)cc4F)(C2)C3)cc1 (some centres unmarked) [Compound 55] | 0.25 µg/mL (≈ 0.467 µM)
6 | OC(COc1ccc(C23CC(C(F)(F)C(O)(Cn4cnnn4)c4ccc(F)cc4F)(C2)C3)cc1)C1COC1 (centres unmarked) [Compound 152] | 0.0078 µg/mL (≈ 0.0146 µM)
7 | OC(Cn1cnnn1)(c1ccc(F)cc1F)C(F)(F)C12CC(c3ccc(OCC4(F)COC4)nc3)(C1)C2 (centres unmarked) [Compound 122] | 0.016 µg/mL (≈ 0.0306 µM)
8 | O[C@@](Cn1ncnn1)(c1ccc(F)cc1F)C(F)(F)C12CC(c3cnc(OCC(F)(F)F)nc3)(C1)C2 (stereo in doubt) [Compound 110A] | 0.016 µg/mL (≈ 0.0309 µM)
9 | N#Cc1ccc(C23CC(C(F)(F)[C@@](Cn4cncn4)(OP(=O)(O)O)c4ccc(F)cc4F)(C2)C3)cc1 [Compound 27A-P1] | 2 µg/mL (≈ 3.83 µM)
10 | COC(=O)c1ccc(C23CC(C(F)(F)C(O)(Cn4cnnn4)c4ccc(F)cc4F)(C2)C3)cc1 (centres unmarked) [Compound 77] | 0.016 µg/mL (≈ 0.0336 µM)
11 | N#Cc1ccc(C23CC(C(F)(F)[C@@](O)(Cn4cncn4)c4cc(F)ccc4F)(C2)C3)cc1 [Compound 29B] | 0.125 µg/mL (≈ 0.283 µM)
12 | OC(Cn1cnnn1)(CC12CC(c3ccc(OCC(F)(F)F)cc3)(C1)C2)c1ccc(F)cc1F (centres unmarked) [Compound 48] | 0.06 µg/mL (≈ 0.125 µM)
13 | OC(Cn1cnnn1)(c1ccc(F)cc1F)C(F)(F)C12CC(c3ccc(OCc4ccccn4)cc3)(C1)C2 (centres unmarked) [Compound 72] | 0.03 µg/mL (≈ 0.0571 µM)
14 | O[C@](Cn1cnnn1)(c1ccc(F)cc1F)C(F)(F)C12CC(c3ccc(OCC(F)(F)F)cc3)(C1)C2 [Compound 3B] | 1 µg/mL (≈ 1.94 µM)
15 | OC(Cn1cnnn1)(c1ccc(F)cc1F)C(F)(F)C12CC(CN3CCC(Oc4ccccc4)CC3)(C1)C2 (centres unmarked) [Compound 80] | 0.06 µg/mL (≈ 0.113 µM)
16 | OC(Cn1ccnc1)(c1ccc(F)cc1F)C(F)(F)C12CC(c3ccc(OCC(F)(F)F)cc3)(C1)C2 (centres unmarked) [Compound 124] | 0.0078 µg/mL (≈ 0.0152 µM)
17 | COc1nc(C23CC(C(F)(F)C(O)(Cn4cnnn4)c4ccc(F)cc4F)(C2)C3)cs1 (centres unmarked) [Compound 119] | 0.06 µg/mL (≈ 0.132 µM)
18 | OC(Cn1cncn1)(c1ccc(Cl)cc1F)C(F)(F)C12CC(c3ccc(OCC(F)(F)F)cc3)(C1)C2 (centres unmarked) [Compound 5] | 0.016 µg/mL (≈ 0.0301 µM)
19 | O[C@](Cn1cnnn1)(c1ccc(F)cc1F)C(F)(F)C12CC(C1)C2 [Compound 6B] | 2 µg/mL (≈ 5.84 µM)
20 | OC(Cn1cnnn1)(c1ccc(F)cc1F)C(F)(F)C12CC(c3cccc(OCC(F)(F)F)c3)(C1)C2 (centres unmarked) [Compound 31] | 0.125 µg/mL (≈ 0.242 µM)
21 | OC(Cn1cnnn1)(c1ccc(F)cc1F)C(F)(F)C12CC(c3ccc(COC(F)F)cc3)(C1)C2 (centres unmarked) [Compound 159] | 0.0078 µg/mL (≈ 0.0156 µM)
22 | OC(Cn1cnnn1)(c1ccc(F)cc1F)C(F)(F)C12CC(c3cnc(OCC(F)(F)F)nc3)(C1)C2 (centres unmarked) [Compound 110] | 0.06 µg/mL (≈ 0.116 µM)
23 | O[C@H](COc1ccc(C23CC(C(F)(F)C(O)(Cn4cnnn4)c4ccc(F)cc4F)(C2)C3)cc1)CN1CCOCC1 (some centres unmarked) [Compound 58] | 0.06 µg/mL (≈ 0.104 µM)
24 | N#CC1(COc2ccc(C34CC(C(F)(F)C(O)(Cn5cnnn5)c5ccc(F)cc5F)(C3)C4)cc2)CC1 (centres unmarked) [Compound 148] | 0.016 µg/mL (≈ 0.0312 µM)
25 | OC12CC(C(F)(F)C(O)(Cn3cncn3)c3ccc(F)cc3F)(C1)C2 (centres unmarked) [Compound 133] | 3 µg/mL (≈ 8.4 µM)
26 | OC(Cn1cnnn1)(c1ccc(F)cc1F)C(F)(F)C12CC(c3cnc(OCC(F)(F)F)cn3)(C1)C2 (centres unmarked) [Compound 107] | 0.06 µg/mL (≈ 0.116 µM)
27 | CS(=O)(=O)c1ccc(C23CC(C(F)(F)C(O)(Cn4cnnn4)c4ccc(F)cc4F)(C2)C3)cc1 (centres unmarked) [Compound 88] | 0.25 µg/mL (≈ 0.504 µM)

Row | SMILES | MIC
28 | O=C1NC[C@H](COc2ccc(C34CC(C(F)(F)C(O)(Cn5cnnn5)c5ccc(F)cc5F)(C3)C4)cc2)O1 (some centres unmarked) [Compound 59] | 0.13 µg/mL (≈ 0.244 µM)
29 | COc1ccc(C23CC(C(C)(F)C(O)(Cn4cnnn4)c4ccc(F)cc4F)(C2)C3)cc1 (centres unmarked) [Compound 17] | 0.125 µg/mL (≈ 0.281 µM)
30 | OC(Cn1cnnn1)(c1cc(F)ccc1F)C(F)(F)C12CC(c3ccc(OCC(F)(F)F)cc3)(C1)C2 (centres unmarked) [Compound 9] | 0.03 µg/mL (≈ 0.0581 µM)
31 | OC(Cn1cnnn1)(c1ccc(F)cc1F)C(F)(F)C12CC(c3ccc(O[C@@H]4CCNC4)cc3)(C1)C2 (some centres unmarked) [Compound 84] | 0.25 µg/mL (≈ 0.497 µM)
32 | OC1(COc2ccc(C34CC(C(F)(F)[C@](O)(Cn5cnnn5)c5ccc(F)cc5F)(C3)C4)cc2)COC1 (stereo in doubt) [Compound 150A] | 0.016 µg/mL (≈ 0.0307 µM)
33 | CC(F)(C12CC(c3ccc(OCC(F)(F)F)cc3)(C1)C2)C(O)(Cn1cnnn1)c1ccc(F)cc1F (centres unmarked) [Compound 18] | 0.016 µg/mL (≈ 0.0312 µM)
34 | N#Cc1ccc(C23CC(C(F)(F)C(O)(Cn4cnnn4)c4cc(F)ccc4F)(C2)C3)cc1 (centres unmarked) [Compound 28] | 0.016 µg/mL (≈ 0.0361 µM)
35 | CN1CCN(c2ccc(C34CC(C(F)(F)C(O)(Cn5cnnn5)c5ccc(F)cc5F)(C3)C4)cc2)CC1 (centres unmarked) [Compound 162] | 0.03 µg/mL (≈ 0.0581 µM)
36 | CN1CCOC(COc2ccc(C34CC(C(F)(F)C(O)(Cn5cnnn5)c5ccc(F)cc5F)(C3)C4)cc2)C1 (centres unmarked) [Compound 85] | 0.03 µg/mL (≈ 0.0548 µM)
37 | NS(=O)(=O)Oc1ccc(C23CC(C(F)(F)C(O)(Cn4cnnn4)c4ccc(F)cc4F)(C2)C3)cc1 (centres unmarked) [Compound 68] | 0.13 µg/mL (≈ 0.253 µM)
38 | CC(C12CC(c3ccc(C#N)cc3)(C1)C2)C(O)(Cn1cncn1)c1ccc(F)cc1F (centres unmarked) [Compound 126] | 0.016 µg/mL (≈ 0.0381 µM)
39 | N#Cc1ccc(COc2ccc(C#CC34CC(C(F)(F)C(O)(Cn5cnnn5)c5ccc(F)cc5F)(C3)C4)cc2)cc1 (centres unmarked) [Compound 19] | 0.016 µg/mL (≈ 0.0279 µM)
40 | OC(COc1ccc(C23CC(C(F)(F)C(O)(Cn4cnnn4)c4ccc(F)cc4F)(C2)C3)cc1)C1(O)COC1 (centres unmarked) [Compound 146] | 0.06 µg/mL (≈ 0.109 µM)
41 | CN1CC(Oc2ccc(C34CC(C(F)(F)C(O)(Cn5cnnn5)c5ccc(F)cc5F)(C3)C4)cc2)C1 (centres unmarked) [Compound 45] | 0.03 µg/mL (≈ 0.0596 µM)
42 | OC1(COc2ccc(C34CC(C(F)(F)C(O)(Cn5cnnn5)c5ccc(F)cc5F)(C3)C4)cc2)CC1 (centres unmarked) [Compound 147] | 0.016 µg/mL (≈ 0.0317 µM)
43 | O[C@@H](COc1ccc(C23CC(C(F)(F)[C@](O)(Cn4cnnn4)c4cc(F)ccc4F)(C2)C3)cc1)C(F)(F)F [Compound 166A] | 0.06 µg/mL (≈ 0.11 µM)
44 | N#Cc1ccc(C23CC(C(F)(F)C(F)(Cn4cncn4)c4ccc(F)cc4F)(C2)C3)cc1 (centres unmarked) [Compound 83] | 0.06 µg/mL (≈ 0.135 µM)
45 | Oc1ccc(C23CC(C(F)(F)C(O)(Cn4cnnn4)c4ccc(F)cc4F)(C2)C3)cc1 (centres unmarked) [Compound 20] | 0.13 µg/mL (≈ 0.299 µM)
46 | O=C(COc1ccc(C23CC(C(F)(F)C(O)(Cn4cnnn4)c4ccc(F)cc4F)(C2)C3)cc1)N1CCOCC1 (centres unmarked) [Compound 70] | 0.13 µg/mL (≈ 0.232 µM)
47 | OC(Cn1cnnn1)(c1ccc(F)cc1F)C(F)(F)C12CC(C1)C2 (centres unmarked) [Compound 6] | 0.13 µg/mL (≈ 0.38 µM)
48 | N#Cc1ccc(C23CC(C(F)(F)[C@@](O)(Cn4cncn4)c4ccc(F)cc4F)(C2)C3)cc1 [Compound 27B] | 0.06 µg/mL (≈ 0.136 µM)
49 | C[C@](F)(C12CC(c3ccc(OCC(F)(F)F)cc3)(C1)C2)[C@@](O)(Cn1cnnn1)c1ccc(F)cc1F [Compound 18B] | 2 µg/mL (≈ 3.9 µM)
50 | CN1CCC(COc2ccc(C34CC(C(F)(F)C(O)(Cn5cnnn5)c5ccc(F)cc5F)(C3)C4)cc2)CC1 (centres unmarked) [Compound 74] | 0.13 µg/mL (≈ 0.238 µM)

same assay, conditions: lowest concentration inhibiting growth of yeast by 50%; 35° C., 24 hours; RPMI1640

Row | SMILES | MIC Candida albicans ATCC MYA-2876
51 | O[C@@](Cn1cnnn1)(c1ccc(Cl)cc1F)C(F)(F)C12CC(c3ccc(OCC(F)(F)F)cc3)(C1)C2 [Compound 7A] | 0.0078 µg/mL (≈ 0.0146 µM)
52 | CC12CC(C(F)(F)[C@](O)(Cn3cnnn3)c3ccc(F)cc3F)(C1)C2 [Compound 14A] | 0.016 µg/mL (≈ 0.0449 µM)
53 | Oc1ccc(C23CC(C(F)(F)[C@](O)(Cn4cnnn4)c4ccc(F)cc4F)(C2)C3)cc1 (single isomer, unassigned) [Compound 20A] | 0.06 µg/mL (≈ 0.138 µM)
54 | N#Cc1ccc(C23CC(C(F)(F)[C@@](O)(Cn4cnnn4)c4ccc(F)cc4F)(C2)C3)cc1 [Compound 8A] | 0.0078 µg/mL (≈ 0.0176 µM)
55 | O[C@@](Cn1cnnn1)(c1ccc(F)cc1F)C(F)(F)C12CC(C1)C2 [Compound 6A] | 0.06 µg/mL (≈ 0.175 µM)
56 | CNC(=O)COc1ccc(C23CC(C(F)(F)[C@](O)(Cn4cnnn4)c4ccc(F)cc4F)(C2)C3)cc1 [Compound 34A] | 0.0078 µg/mL (≈ 0.0154 µM)
